Measured values taken from patent US9622469B2, “Crosslink breakers for preservation of biological substances” (priority 2013, dated 2017).
“Also recorded” adds a separate entry of the source. Marks after values point to notes of the source that are not given here.

How the values were obtained:
[1] = Cleavage of PPD by NHC precursors, Method A (alcoholic co-solvent); assay type: biochemical; details: co-solvent MeOH
Method: (§1) Dicarbonyl cleavage reactions were performed using either the method described in Vasan et al., An agent cleaving glucose-derived protein crosslinks in vitro and in vivo, Nature (1996) Vol. 382, pp. 275-278 (Method A) or a modified method with MeCN as a co-solvent (Method B).
PPD (21 μl, 156 μmol) was added to a murky solution of NHC (2 or 4, 71 μmol) in 50% MeOH/0.5 M pH 7.4 sodium phosphate buffer (3.5 ml/3.5 ml; final conc. 10 mM NHC, 22 mM PPD) and kept stirred at 37° C. Approximately 0.5 ml aliquots were taken at stated times and analyzed by HPLC. Experiments using EtOH or iPrOH as a co-solvent were done in the same manner. Concentrations of benzoic acid and benzoate esters were determined by peak integration against the calibration curves.
Having learned that ALT-711 performed best among NHCs evaluated for PPD cleavage, we sought to test its substrate scope versus its N-benzyl counterpart (4). We therefore measured product distribution and yield while varying the co-solvent used to solubilize dicarbonyl substrates. As summarized in Table 2, we first investigated the performance of alcoholic co-solvents in PPD cleavage reactions. […] Despite this, however, the product distributions differed substantially: ALT-711 (2) predominantly afforded benzoic acid (PhCO2H:PhCO2Me=3.2:1, Entry 2), whereas 4 mostly gave rise to methyl benzoate (PhCO2H:PhCO2Me=1:2.2, Entry 4). Further replacement of the co-solvent with EtOH and i-PrOH in 4-catalyzed reactions led to a decrease in the proportion of ester production, still without altering overall yield (Entries 5 and 6).

[2] = NHC-mediated reaction with α-keto aldehyde methylglyoxal (17), Method B; assay type: biochemical; details: isolated yield with respect to 2
Method: (§2) 60 mM solution of dicarbonyl substrate (45 μmol) in MeCN (0.75 ml) was added to 20 mM solution of NHC (15 μmol) in 0.15 M pH 7.4 sodium phosphate buffer (0.75 ml) and kept stirred at 37° C. At stated times, 75 μl aliquots were taken, diluted with 50% MeCN/H2O (425 μl) and analyzed by LCMS with 2,4-dihydroxyquinoline (248 μM) as an internal standard. The cleavage products were quantified by peak integration against the calibration curves.
Four diastereomers (ALT-MGO-1 through ALT-MGO-4) were obtained with a similar method to ALT-PG using 2 (100 mg, 0.37 mmol) and 40% methylglyoxal (MOO, 17) solution (0.2 ml, 1.3 mmol, 3.5 eq). Purification was performed by HPLC (9-19% MeCN over 32 min), and the lyophilization of fractions afforded the title compounds as white solids (96% combined yield). See Supplementary Material for characterization data.
Reactions involving α-keto aldehyde derivatives 16 and 17 followed an unexpected course. Treatment of these substrates with 2 led to instantaneous, high-yield production of a diastercomeric mixture of cycloadducts (19 and 20) that decompose to complex mixtures under the reaction conditions with half-lives of approximately 3 h Structures were determined based on in-depth NMR analysis (see Supplementary Material).

[3] = Trapping of methylglyoxal under physiological conditions (PBS); assay type: biochemical; details: 37° C., 24 hours, MGO at pathologically relevant concentration (4-6 μM)
Method: For trapping under physiological conditions (FIG. 5), 12.5 μl of 2 (40 mM stock) and 7.7 μl of MGO (6.5 mM stock) were added to PBS (4.98 ml) and kept stirred at 37° C. At stated times, 445 μl of the reaction mixture was taken, quenched with 1 M HCl (5 μl) and analyzed by LCMS after adding 50 μl of 3 mM 4-methoxybenzhydrol as an internal standard. Yield of ALT-MGO (20) was determined by peak integration (m/z=304) against a calibration curve.
Recognizing the reaction conditions employed above were non-physiological, we wanted to test if ALT-711 could efficiently trap methylglyoxal (MGO, 17) at a pathologically relevant concentration (4-6 μM). We obtained ALT-MOO adduct (20) in PBS with a 53% yield at 24 hours (FIG. 5B). […] The trapping of MGO by ALT-711 may be the mechanism for the observed effects.

[4] = Cleavage of PPD (3) to benzoic acid by NHC precursors, Method B (MeCN co-solvent); assay type: biochemical
Method: as §1, §2
Thus, our first goal in these studies was to assess the ability of various NHC precursors to induce the degradation of the dicarbonyl model substrate (PPD, 3). To this end, we screened the thiazolium (4-6), benzothiazolium (7), triazolium (8,9) and imidazolium (10) halide substructures shown in Table 1.

[5] = NHC-mediated cleavage of bis-alkyl diketone 14, Method B; assay type: biochemical; details: LCMS, with respect to dicarbonyl
Method: as §2
Our efforts to investigate the scope of thiazolium salt-mediated reactions with dicarbonyls began with bis-alkyl diketone 14 (Table 3, Entry 1). This substrate is cleaved cleanly by 2, and affords acid 18 in 82% yield. NHC precursor 4, on the other hand, provides 18 in only 14% yield (Entry 2). The efficiency of dicarbonyl cleavage reactions decreases substantially in the case of benzil (15, Entry 3), which affords benzoic acid in 14% and 1% yield following exposure to 2 and 4, respectively.

stored mouse blood = experiment: Glucose in serum of stored mouse blood (glucose oxidase enzymatic assay); assay type: cell-based; details: typical storage conditions, up to 14 days
Method: (§3) Leuko-reduced mouse blood was stored under typical storage conditions for up to 14 days, in either OCR6043, control compound, or without any treatment. FIG. 2A illustrates an analysis of glucose in the serum from the stored blood was evaluated using a glucose oxidase enzymatic assay. […] FIG. 2B illustrates the AGE precursor levels on RBCs were measured using a dicarbonyl-specific fluorophore that was developed in-house. The time dependent increase in the AGE precursor levels was dampened in the presence of OCR6043. FIG. 2C illustrates mouse blood that was stored for 14 days, was evaluated for its immunogenicity upon transfusion, by testing for IgGs against an alloantigen on the RBCs (HOD=HEL-OVA-Duffy).

circulating stored RBCs = experiment: Post-transfusion recovery of stored RBCs (flow cytometry); assay type: in vivo, mouse; details: blood stored 14 days; 24 hours after transfusion; listed as OCR6043
Method: as §3
Using the transfusion methodology described in Hendrickson et al., it was possible to identify the surviving circulating RBCs using flow cytometry.

Q: What does the source list for `Cc1sc[n+](CC(=O)c2ccccc2)c1C.[Cl-]` [Compound 2]?
A: Combined % Yield (PhCO2H, PhCO2Me) [1]: 54%; % Yield of cycloadduct 20 from substrate 17 [2]: 96^b %; Yield of ALT-MGO adduct (20) [3]: 53%; Benzoic acid formation from 3 (in words) ([4]; Method B screen of NHC precursors): highest overall yield; Combined % Yield (PhCO2H) ([4]; co-solvent MeCN, Method B, LCMS, with respect to dicarbonyl): 61%; % Yield of acid 18 from substrate 14 [5]: 82%; Glucose levels in serum of stored blood (stored mouse blood): more effective preservation of glucose levels; Cell survival of transfused stored RBCs versus untreated stored blood (circulating stored RBCs): two-fold increase; also recorded: twofold increase
